Assay results reported in PMC2774256 (Bioorganic & medicinal chemistry, 2009).
Square brackets hold non-standard residues; d marks the D form. Ends that are not written are not given here. * marks the point of attachment. dNMeF = CN[C@H](Cc1ccccc1)C(=O)O; Cha = N[C@@H](CC1CCCCC1)C(=O)O; NMeL = CN[C@@H](CC(C)C)C(=O)O; dNMeV = CN[C@@H](C(=O)O)C(C)C; NMeV = CN[C@H](C(=O)O)C(C)C; Cbz = O=C(OCc1ccccc1)*; Bn = c1ccc(C*)cc1

How the values were obtained:
[1] = system: PL-45 pancreatic cancer cells; assay: 3H-thymidine incorporation/growth inhibition assay
[2] = system: BxPC-3 pancreatic cancer cells; assay: 3H-thymidine incorporation/growth inhibition assay

Substance	cytotoxicity / growth inhibition in words [1]	cytotoxicity / growth inhibition in words [2]
FLVK(Cbz)[NMeL] [Compound 68]	not toxic	not toxic
FL[NMeV]L[dF] [Compound 62]	relatively non-toxic	relatively non-toxic
FL[dV][dL]L [Compound 37]	not potent	not potent
F[dNMeF]V[Cha]L [Compound 49]	underwhelming cytotoxicity	underwhelming cytotoxicity
F[dNMeF]V[Cha]S(Bn) [Compound 60]	not effective	not effective
F[dNMeF][dV]LL [Compound 32]	cytotoxic	very poor cytotoxicity
[dF]L[NMeV][dL][dF] [Compound 61]	relatively non-toxic	relatively non-toxic
[dY][dNMeF]VLL [Compound 15]	cytotoxic	very poor cytotoxicity
cyclo(FL[dNMeV][dK][dF]) [Compound 64]	not toxic	not toxic
